Results taken from patent US20050226919A1, “Device for transdermal administration for the treatment of urinary tract disorders” (priority 2001, published 2005).

Assays:
α1a-receptor = target: T1, α1a-receptor (Homo sapiens, UniProt P35348); settings: Murata et al., Br. J. Pharmacol. (1999) 127, 19-26; cited from earlier work
T1 sequence (P35348 1-466): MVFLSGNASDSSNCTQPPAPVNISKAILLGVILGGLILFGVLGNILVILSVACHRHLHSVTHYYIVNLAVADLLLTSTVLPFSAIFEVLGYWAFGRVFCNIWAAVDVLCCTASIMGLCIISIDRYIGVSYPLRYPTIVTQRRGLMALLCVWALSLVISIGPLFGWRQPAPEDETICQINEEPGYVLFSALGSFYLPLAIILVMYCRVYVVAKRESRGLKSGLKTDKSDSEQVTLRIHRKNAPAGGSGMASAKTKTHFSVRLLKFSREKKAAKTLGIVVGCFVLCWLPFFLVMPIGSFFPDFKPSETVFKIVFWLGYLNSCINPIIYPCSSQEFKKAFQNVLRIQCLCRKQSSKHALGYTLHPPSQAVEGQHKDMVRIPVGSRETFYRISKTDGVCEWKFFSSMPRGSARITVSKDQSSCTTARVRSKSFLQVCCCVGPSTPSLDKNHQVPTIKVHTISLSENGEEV

[1] = Skin permeation across human skin (in vitro penetration assay); type: in vitro ADME
Description: (§1) The skin permeation of KMD 3213 was also evaluated on hairless mouse skin and human skin. Human skin penetration assays were performed as described by Tanojo et al. in Journal of Controlled Release 45 (1997), 41-47. The concentration of KMD 3213 was measured by HPLC with a Symetry Shield RP-8, 3.9*150 mm 5 μm column; T=35° C.; eluent: water/acetonitrile/trifluoracetic acid 800/200/1 (v/v/v); dectetion UV at 225 nm; flux rate 1.5 ml/min; injection volume: 100 μl at 23° C.

[2] = Skin permeation across hairless mouse skin (horizontal diffusion cell); type: in vitro ADME
Description: as §1
The flux measurements on hairless mouse skin were conducted using a TTS area of 2.55 cm^2 fixed on mouse abdominal and back skin in a horizontal diffusion cell. Immediately thereafter the acceptor chamber of the cell was filled with phosphate buffer solution (0.066 molar) previously adjusted to 32±0.5° C. and pH 6.2, in an air-bubble free state, and the release medium thermostatted to 32±0.5° C. At the time of sampling (after 3, 6, 24 and 48 hours) the release medium is exchanged with fresh medium thermostatted at 32±0.5° C. KMD 3213 was measured with HPLC as explained above.

SMILES: C[C@H](Cc1cc2c(c(C(N)=O)c1)N(CCCO)CC2)NCCOc1ccccc1OCC(F)(F)F [KMD 3213, (-)-(R)-1-(3-hydroxypropyl)-5-[2-[[2-[2-(2,2,2-trifluoroethoxy)phenoxy]ethyl]amino]propyl]indoline-7-carboxamide]
- α-adrenoceptor subtype specificity (α1a-receptor): binding specifically to the α1a-receptor
- steady state flux rate on human skin [1]: 2.9 mg/20 cm^2 per day
- steady state skin permeation rate on hairless mouse skin ([2]; hairless mouse skin, TTS area 2.55 cm^2, phosphate buffer pH 6.2, 32°C): approximately 2.7 mg/20 cm^2 per day
- steady state flux rate through mouse skin ([2]; mouse skin, from the devices of the invention): 2.7 mg/day
